PMC9563204, “Mass Spectrometry and Machine Learning Reveal Determinants of Client Recognition by Antiamyloid Chaperones” (Molecular & Cellular Proteomics : MCP, 2022)

Target: TTR (transthyretin) (Homo sapiens, UniProt P02766)
Assay: native MS of Aβ([…]) binding to TTR with and without tafamidis
Settings: TTR tetramer coincubated with Aβ(12–28) and tafamidis, overnight, room temperature; indirect read-out (tetramer stabilization)

In the case of `O=C(O)c1ccc2nc(-c3cc(Cl)cc(Cl)c3)oc2c1` [tafamidis], the “native MS of Aβ(12-28) binding to TTR with and without tafamidis” value is reported as “In the presence of tafamidis, we observed a clear decrease in Aβ binding to TTR”.
